Results taken from US4596799A, “9H-pyrrolo[2,1-c]-1,2,4-triazolo[4,3-a][1,4]benzodiazepines” (Ciba-Geigy Corporation, priority 1985, dated 1986).
pIC50: −log10 of the molar value.

How the values were obtained:
benzodiazepine receptor [1] = assay: in vitro benzodiazepine receptor binding assay, tritiated flunitrazepam as radioactive ligand; details: 0.5 nM tritiated flunitrazepam; read-out: IC50, concentration required to inhibit the specific binding of tritiated flunitrazepam by 50%
Protocol: The benzodiazepine receptor binding properties indicative of the nervous system regulatory activity of said new compounds are determined in the receptor binding assay in vitro, e.g. similarly to that in Nature 266, 732 (1977) or Proc. Nat. Acad. Sci. USA 74, 3805 (1977), using tritiated flunitrazepam as the radioactive ligand. The concentration of the compounds of this invention, required to inhibit the specific binding of 0.5 nM of tritiated flunitrazepam by 50%, i.e. the IC50, is determined graphically.

benzodiazepine receptor [2] = assay: in vivo benzodiazepine receptor binding (3H-flunitrazepam binding in brain); details: mouse
Protocol: In vivo benzodiazepine receptor binding is determined essentially as described in Eur. J. Pharmacol. 48, 213 (1978) and Nature 275, 551 (1978). Test compounds in a corn starch vehicle are administered orally or intraperitoneally to mice or rats. A decrease in the binding of ^3 H-flunitrazepam in the brain of drug-treated animals (as compared with the binding observed in animals treated with vehicle alone) is indicative of benzodiazepine receptor binding by the test compound.

rat = assay: Metrazole (pentylenetetrazole) test for anticonvulsant activity; assay type: in vivo; details: po
Description: Anticonvulsant effects are observed, for example in the standard Metrazole (pentylenetetrazole) test for assessing anticonvulsant activity, e.g. orally in the rat as described in U.S. Pat. No. 4,479,955.

Row | SMILES | pIC50 (benzodiazepine receptor [1]) | inhibition of flunitrazepam binding in vivo (benzodiazepine receptor [2]; 30 mg/kg p.o.) | ED50 (rat) | inhibition of flunitrazepam binding in vivo (benzodiazepine receptor [2]; 5.3 mg/kg p.o.) | inhibition of flunitrazepam binding in vivo (benzodiazepine receptor [2]; 0.6 mg/kg p.o.)
1 | COc1cc2c(cc1OC)-n1c(-c3ccccn3)nnc1-c1cccn1C2.Cl [Example 7f, 6,7-dimethoxy-3-(2-pyridinyl)-9H-pyrrolo[2,1-c]-1,2,4-triazolo[4,3-a][1,4]benzodiazepine hydrochloride] | ~9.00 | ~75% |  |  | 
2 | Cl.c1ccc(-c2nnc3n2-c2ccccc2Cn2cccc2-3)nc1 [Example 1, 3-(2-Pyridinyl)-9H-pyrrolo[2,1-c]-1,2,4-triazolo[4,3-a][1,4]benzodiazepine Hydrochloride] | ~8.40 | about 67% | ~3 mg/kg |  | 
3 | Cl.Clc1ccc2c(c1)-n1c(-c3ccccn3)nnc1-c1cccn1C2 [Example 3, 6-Chloro-3-(2-pyridinyl)-9H-pyrrolo[2,1-c]-1,2,4-triazolo[4,3-a][1,4]benzodiazepine Hydrochloride] | ~9.15 |  |  | ~50% | 
4 | Cl.FC(F)(F)c1ccc2c(c1)-n1c(-c3ccccn3)nnc1-c1cccn1C2 [Example 4, 6-Trifluoromethyl-3-(2-pyridinyl)-9H-pyrrolo[2,1-c]-1,2,4-triazolo[4,3-a][1,4]benzodiazepine Hydrochloride] | ~9.40 |  |  |  | ~50%
